Source: paper PMC2189693 (The Journal of Experimental Medicine, 1988)

Tested on: anti-al mAb, 3-2F1
Type: binding, mouse
Conditions: for Inhibition of binding of rabbit a1 Ig to anti-a1 antibody (in words): RIA with mAb 3-2F1, 24 h preincubation of inhibitor, result in words

expression of an a1 epitope (in words) (conclusion from peptide inhibition of al Ig binding to anti-al) | Substance | Inhibition of binding of rabbit a1 Ig to anti-a1 antibody (in words)
– | IGYIYPNIDDSAY_SQ [SMA1] | Neither the substituted peptide, SMA1, nor the control peptide, UB1, inhibited binding
each appear to define an al epitope | IT_SPTTEDTAT_YFCA [RA1] | –
– | MQIFVKTLTGKDPGG [UB1, reference compound] | Neither the substituted peptide, SMA1, nor the control peptide, UB1, inhibited binding
